This passage reports LD50 results from ChEMBL document CHEMBL1141855, “Trypargine alkaloids from a previously undescribed Eudistoma sp. ascidian” (J Nat Prod, 1999).

Structures are written as SMILES.

What is called LD50 is the dose at which mortality reaches 50%. Low values mean greater toxicity, high ones lower toxicity.

The nature of the data set: Toxicity in iv dosed mouse. The format is organism-based. Conditions: in vivo.

In turn, `N=C(N)NCCCC1NCCc2c1[nH]c1ccccc21` (stereo unspecified) [TRYPARGINE] yielded an LD50 of 16.9 mg/kg.
